For nine molecules, IC50 results are on record in ChEMBL document CHEMBL1128934, “Nonpeptide glycoprotein IIB/IIIA inhibitors. 12. Potent and orally active centrally constrained thieno[2,3-c]pyridones” (Bioorg Med Chem Lett, 1996).

The species named for this assay is Homo sapiens. The assay is described as follows: Compound was evaluated for inhibition of ex vivo ADP mediated platelet aggregation of human gel filtered platelets. Type of assay: functional.
`C[C@H](CC(=O)O)NC(=O)c1cc2c(s1)CCN(CCC1CCNCC1)C2=O` displayed an IC50 of 220 nM.
To `O=C(O)CCCC(=O)c1cc2c(s1)CCN(CCC1CCNCC1)C2=O` belongs 260 nM; to `CCCCS(=O)(=O)N[C@@H](CNC(=O)c1cc2c(s1)CCN(CCC1CCNCC1)C2=O)C(=O)O`, 8 nM.
Next, `O=C(NC[C@H](NS(=O)(=O)c1cccnc1)C(=O)O)c1cc2c(s1)CCN(CCC1CCNCC1)C2=O`: 13 nM; `O=C(O)CCNC(=O)c1cc2c(s1)CCN(CCC1CCNCC1)C2=O`: 150 nM; `CCCCS(=O)(=O)N[C@@H](CNC(=O)c1csc2c1C(=O)N(CCC1CCNCC1)CC2)C(=O)O`: 33000 nM.
To `O=C(NCc1ccccc1)N[C@@H](CNC(=O)c1cc2c(s1)CCN(CCC1CCNCC1)C2=O)C(=O)O` belongs 25 nM; to `O=C(O)CCNC(=O)c1ccc2c(c1)C(=O)N(CCC1CCNCC1)C2`, 25 nM.
On to `O=C(NC[C@H](NS(=O)(=O)c1ccccc1)C(=O)O)c1cc2c(s1)CCN(CCC1CCNCC1)C2=O`, for which half-maximal inhibition (IC50) was put at 7 nM.

By IC50 is commonly meant the point on the concentration scale where inhibition reaches its midpoint.
